According to article PMC9403976, “Elucidating the path to Plasmodium prolyl-tRNA synthetase inhibitors that overcome halofuginone resistance” (Nature Communications, 2022):
Where “and” joins values, the source holds several entries; their conditions need not be identical. Equal values may be shown once. Read-outs that look alike come from different tables or passages of the source.

Tests used:
P. falciparum Dd2-2D4 = assay: P. falciparum asexual blood stage (ABS) growth assay, SYBR Green, 72 h, wild-type parasites; format: cell-based, Plasmodium falciparum; conditions: for EC50: Plasmodium falciparum, DD2, SI Fig 16b, values on -log scale, read-out: ABS - Dd2-2D4 (converted)
PfcProRS = molecular target: T1, PfcProRS (Plasmodium falciparum, UniProt Q8I5R7); format: binding; conditions: for Normalized response, dose-response replicates (SI Fig 14): replicates 1-3
T1 construct: made in house; host or cells: E. coli SoluBL-21

HsProRS = HsProRS (Homo sapiens, UniProt P07814); assay: TR-FRET ligand displacement assay with tracer MAT379 (CoraFluor-1-Halo and anti-His6 antibody formats); format: binding; design: made in house; host or cells: E. coli SoluBL-21
[1] = read-out: HsProRS IC50 + 100 μM proline, + 100 μM proline

T1 sequence (Q8I5R7 249-746): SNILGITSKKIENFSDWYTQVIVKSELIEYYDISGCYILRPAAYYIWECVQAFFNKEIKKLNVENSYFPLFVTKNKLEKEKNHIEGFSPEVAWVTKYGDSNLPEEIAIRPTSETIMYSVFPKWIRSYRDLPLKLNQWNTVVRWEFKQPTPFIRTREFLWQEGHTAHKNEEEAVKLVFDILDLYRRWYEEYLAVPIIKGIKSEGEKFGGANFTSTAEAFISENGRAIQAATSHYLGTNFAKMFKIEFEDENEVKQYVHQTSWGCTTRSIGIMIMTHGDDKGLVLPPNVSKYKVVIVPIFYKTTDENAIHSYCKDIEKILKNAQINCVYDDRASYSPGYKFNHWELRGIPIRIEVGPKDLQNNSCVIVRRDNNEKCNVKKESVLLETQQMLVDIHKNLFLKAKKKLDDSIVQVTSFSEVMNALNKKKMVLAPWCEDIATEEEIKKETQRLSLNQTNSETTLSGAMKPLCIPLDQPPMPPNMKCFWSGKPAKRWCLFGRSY
Chain of HsProRS (P07814 996-1512): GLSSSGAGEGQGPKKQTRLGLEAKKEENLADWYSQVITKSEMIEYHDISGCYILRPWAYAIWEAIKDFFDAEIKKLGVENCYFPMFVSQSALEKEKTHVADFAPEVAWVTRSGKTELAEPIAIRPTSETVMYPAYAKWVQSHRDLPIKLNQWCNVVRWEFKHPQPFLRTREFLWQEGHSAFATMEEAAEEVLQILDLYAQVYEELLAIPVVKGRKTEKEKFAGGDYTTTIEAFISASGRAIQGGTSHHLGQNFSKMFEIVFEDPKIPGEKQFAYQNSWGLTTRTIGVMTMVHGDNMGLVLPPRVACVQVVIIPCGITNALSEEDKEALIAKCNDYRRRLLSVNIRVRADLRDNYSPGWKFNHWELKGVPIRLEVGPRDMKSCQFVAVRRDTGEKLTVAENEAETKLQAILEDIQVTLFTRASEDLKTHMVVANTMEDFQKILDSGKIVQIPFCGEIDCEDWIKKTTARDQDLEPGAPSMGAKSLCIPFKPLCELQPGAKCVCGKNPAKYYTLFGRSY

SMILES	Normalized response, dose-response replicates (SI Fig 14) (PfcProRS; Log[inhibitor] (M) -5.000)	Normalized response, dose-response replicates (SI Fig 14) (PfcProRS; Log[inhibitor] (M) -5.301)	Normalized response, dose-response replicates (SI Fig 14) (PfcProRS; Log[inhibitor] (M) -5.601)	Normalized response, dose-response replicates (SI Fig 14) (PfcProRS; Log[inhibitor] (M) -5.904)	Normalized response, dose-response replicates (SI Fig 14) (PfcProRS; Log[inhibitor] (M) -6.208)	Normalized response, dose-response replicates (SI Fig 14) (PfcProRS; Log[inhibitor] (M) -6.509)	Normalized response, dose-response replicates (SI Fig 14) (PfcProRS; Log[inhibitor] (M) -6.796)	Normalized response, dose-response replicates (SI Fig 14) (PfcProRS; Log[inhibitor] (M) -7.108)	Normalized response, dose-response replicates (SI Fig 14) (PfcProRS; Log[inhibitor] (M) -7.409)	Normalized response, dose-response replicates (SI Fig 14) (PfcProRS; Log[inhibitor] (M) -7.710)	Normalized response, dose-response replicates (SI Fig 14) (PfcProRS; Log[inhibitor] (M) -8.000)	Normalized response, dose-response replicates (SI Fig 14) (PfcProRS; Log[inhibitor] (M) -8.301)	Normalized response, dose-response replicates (SI Fig 14) (PfcProRS; Log[inhibitor] (M) -8.602)	Normalized response, dose-response replicates (SI Fig 14) (PfcProRS; Log[inhibitor] (M) -9.000)	Normalized response, dose-response replicates (SI Fig 14) (PfcProRS; Log[inhibitor] (M) -9.301)	EC50 (P. falciparum Dd2-2D4) [µM]	IC50 (HsProRS) [µM]	HsProRS % signal at 10 μM, + 100 μM proline (HsProRS; + 100 μM proline) [%]	HsProRS % signal at 10 μM (HsProRS; no added proline/ATP (-)) [%]	IC50 (HsProRS; [1]) [µM]	further results
NCCCCCC(=O)NCC1CCN(C(=O)Nc2nccnc2C(=O)NC2Cc3ccccc3C2)CC1 [compound 44]	5.04E-02 and 6.61E-02 and 1.21E-01	2.04E-01 and 9.30E-02 and 7.91E-02	1.77E-01 and 2.33E-01 and 2.91E-01	3.70E-01 and 3.87E-01 and 3.95E-01	5.30E-01 and 6.18E-01 and 4.52E-01	5.98E-01 and 6.58E-01 and 5.97E-01	8.14E-01 and 8.03E-01 and 8.36E-01	7.21E-01 and 9.08E-01 and 7.69E-01	9.22E-01 and 9.63E-01 and 8.84E-01	9.26E-01 and 9.41E-01 and 9.94E-01	9.86E-01 and 9.96E-01 and 9.45E-01	1.01E+00 and 1.07E+00 and 1.09E+00	1.05E+00 and 9.10E-01 and 8.68E-01	8.54E-01 and 1.03E+00 and 1.01E+00	1.02E+00 and 8.64E-01 and 7.91E-01						% signal at 10 μM, wildtype (Dd2-2D4) (P. falciparum Dd2-2D4; wildtype (Dd2-2D4), 10 μM): 51.4%; PfcProRS -- best Kd (PfcProRS; SI Fig 16a, values on -log scale): 6.569; Kd (HsProRS; HsProRS (KD [nM]) mean, no added proline/ATP (-)): 1570 nM; Kd (HsProRS; HsProRS - best Kd, SI Fig 16a, values on -log scale): 330 nM
Nc1nccnc1C(=O)NC1Cc2ccccc2C1 [compound 45]	9.00E-01 and 8.01E-01 and 8.09E-01	8.40E-01 and 9.11E-01 and 9.42E-01	1.06E+00 and 1.02E+00 and 9.65E-01	1.09E+00 (2×) and 1.04E+00	9.29E-01 and 9.65E-01 and 9.12E-01	8.69E-01 and 9.97E-01 and 9.91E-01	1.07E+00 and 1.10E+00 and 9.29E-01	1.07E+00 and 1.01E+00 and 9.62E-01	8.73E-01 and 9.86E-01 and 1.07E+00	9.54E-01 and 1.09E+00 and 1.02E+00	9.85E-01 and 1.09E+00 and 1.00E+00	1.09E+00 and 9.49E-01 and 9.81E-01	1.13E+00 and 9.21E-01 and 9.56E-01	1.01E+00 and 9.94E-01 and 8.80E-01	9.92E-01 (2×) and 9.81E-01	13.6	> 10	83.7	90.2	> 10	
CNc1nccnc1C(=O)NC1Cc2ccccc2C1 [compound 46]	8.16E-01 and 6.16E-01 and 6.52E-01	8.98E-01 and 7.41E-01 and 8.21E-01	9.35E-01 and 8.99E-01 and 9.60E-01	1.14E+00 and 9.86E-01 and 9.79E-01	1.04E+00 and 1.02E+00 and 8.92E-01	1.02E+00 (2×) and 9.27E-01	1.13E+00 and 1.15E+00 and 1.04E+00	9.45E-01 and 1.04E+00 and 8.83E-01	1.08E+00 and 9.92E-01 and 1.03E+00	9.83E-01 and 1.09E+00 and 9.75E-01	9.64E-01 and 1.04E+00 and 9.43E-01	1.03E+00 (2×) and 1.01E+00	1.06E+00 and 9.77E-01 and 1.03E+00	9.75E-01 and 9.25E-01 and 9.98E-01	9.09E-01 and 1.02E+00 and 8.23E-01	8.11	> 10	91.7	97.1	> 10	
O=c1[nH]c2nccnc2c(=O)n1C1Cc2ccccc2C1 [compound 47]	3.53E-01 and 3.73E-01 and 3.10E-01	5.89E-01 and 4.94E-01 and 3.58E-01	7.17E-01 and 7.23E-01 and 6.31E-01	1.01E+00 and 8.61E-01 and 7.86E-01	1.02E+00 and 1.03E+00 and 9.13E-01	9.57E-01 and 9.63E-01 and 9.85E-01	1.08E+00 and 9.96E-01 and 1.07E+00	9.59E-01 and 1.12E+00 and 1.15E+00	1.11E+00 and 1.34E+00 and 1.10E+00	1.07E+00 (2×) and 1.12E+00	1.02E+00 and 1.00E+00 and 1.01E+00	1.13E+00 and 1.06E+00 and 1.10E+00	1.07E+00 and 9.89E-01 and 9.49E-01	9.68E-01 and 9.48E-01 and 1.08E+00	9.08E-01 and 1.04E+00 and 1.01E+00	11.1	> 10		79.5		Kd (HsProRS; HsProRS (KD [nM]) + 100 μM proline mean, + 100 μM proline): 2650 nM
